Source: PubChem BioAssay (NCI)
“And” between values parts separate entries of the source, which are not always exact repeats. Equal values may be shown once.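 Grown in 96-well plates, cells were treated for 48 hours with each compound at five concentrations. Insufficient inhibition: endpoint recorded as highest concentration tested. GI50 = concentration required for 50% inhibition of growth. TGI: total growth inhibition.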

What was measured:
Assay in all cases: NCI tumour cell line growth inhibition, 48 h
COLO 205 colon = tested on: COLO 205 colon
HOP-62 NSCLC = tested on: HOP-62 NSCLC
KM20L2 colon = tested on: KM20L2 colon
M19-MEL melanoma = tested on: M19-MEL melanoma
OVCAR-5 ovarian = tested on: OVCAR-5 ovarian
SF-539 CNS = tested on: SF-539 CNS
SK-MEL-28 melanoma = tested on: SK-MEL-28 melanoma
UACC-257 melanoma = tested on: UACC-257 melanoma
DU-145 prostate = tested on: DU-145 prostate
MCF7 breast = tested on: MCF7 breast

SMILES | TGI (COLO 205 colon) | TGI (HOP-62 NSCLC) | TGI (KM20L2 colon) | TGI (M19-MEL melanoma) | TGI (OVCAR-5 ovarian) | TGI (SF-539 CNS) | TGI (SK-MEL-28 melanoma) | TGI (UACC-257 melanoma) | GI50 (COLO 205 colon) | GI50 (DU-145 prostate) | TGI (DU-145 prostate) | GI50 (HOP-62 NSCLC) | GI50 (KM20L2 colon) | GI50 (M19-MEL melanoma) | GI50 (OVCAR-5 ovarian) | GI50 (SF-539 CNS) | GI50 (SK-MEL-28 melanoma) | GI50 (UACC-257 melanoma) | GI50 (MCF7 breast) | TGI (MCF7 breast)
C=CCCOC(=O)CO[N+](=O)[O-] | > 100 µM | > 100 µM | > 100 µM | > 100 µM | > 100 µM | > 100 µM | > 100 µM | > 100 µM | – | – | – | – | – | – | – | – | – | – | – | –
CCN(CC)CC.CCOc1ccc(NC(=O)N=C=[N-])cc1.[CH-]1CCCCC1.[CH-]1CCCCC1.[CH-]1CCCCC1.[Cl-].[Sn+4] | 0.0422 µM | 0.234 µM | 0.0505 µM | 0.0513 µM | 0.114 µM | 0.052 µM | 0.088 µM | 0.12 µM | 0.0184 µM | 0.0617 µM | 0.19 µM | 0.122 µM | 0.0229 µM | 0.0208 µM | 0.0427 µM | 0.0234 µM | 0.0349 µM | 0.0389 µM | – | –
C=CCCCn1ccc2ccccc21 | > 100 µM | > 100 µM | > 100 µM | > 100 µM | > 100 µM | > 100 µM | > 100 µM | > 100 µM | – | – | – | – | – | – | – | – | – | – | – | –
C=CC(=O)N1C/C(=C\c2ccccc2)C(=O)/C(=C/c2ccccc2)C1 | 3.87 µM | 6.28 µM | 3.1 µM | 2.48 µM | 5.72 µM | 3.69 µM | 3.78 µM | 4.29 µM | – | – | 15.9 µM | – | – | – | – | – | – | – | 0.395 µM | 2.06 µM
C#Cc1c(C)c(/C=C/C(C)=C/C=C/C(C)=C/C(=O)OC)n(C)c1C | > 100 µM | > 100 µM | > 100 µM | > 100 µM | > 100 µM | > 100 µM | > 100 µM | > 100 µM | – | – | – | – | – | – | – | – | – | – | – | –
CC1CN(c2ccc(Cl)cc2)CC(C)(C)OC(=O)O1 (stereo unspecified) | > 100 µM | > 100 µM | > 100 µM | > 100 µM | > 100 µM | > 100 µM | > 100 µM | > 100 µM | – | – | – | – | – | – | – | – | – | – | – | –
COc1ccc(/C=C/C(=O)C(C)(C)CN2CCCCC2)cc1 | 30.6 µM | > 100 µM | > 100 µM | 33.8 µM | > 100 µM | 38.1 µM | 65.9 µM | 46.2 µM | – | – | – | – | – | – | – | – | – | – | – | –
CCOc1cc2ccc3c4cc(OC)c(OC)cc4cnc3c2cc1OCC | > 100 µM | > 100 µM | > 100 µM | > 100 µM | > 100 µM | > 100 µM | > 100 µM | > 100 µM | – | – | – | – | – | – | – | – | – | – | – | –
CC1=C(C(=O)Nc2ccccc2C)C(c2ccc(C3C(C(=O)Nc4ccccc4C)=C(C)NC(C)=C3C(=O)Nc3ccccc3C)cc2)C(C(=O)Nc2ccccc2C)=C(C)N1 | 14.5 µM | 42.1 µM | 12.9 µM | 12.3 µM | 31.8 µM | 8.57 µM | 4.26 µM | 9.84 µM | – | – | 32.1 µM | – | – | – | – | – | – | – | – | 19.5 µM
Cc1nnc(N=Nc2c(O)[nH]c3c(Cl)cc(Cl)cc23)n1N | > 100 µM | > 100 µM | > 100 µM | > 100 µM | > 100 µM | > 100 µM | > 100 µM | > 100 µM | – | – | – | – | – | – | – | – | – | – | – | –
O=C(Cc1nc2ccccc2s1)Nc1ccc(Cl)cc1 | > 100 µM | > 100 µM | > 100 µM | > 100 µM | > 100 µM | > 100 µM | > 100 µM | > 100 µM | – | – | – | – | – | – | – | – | – | – | – | –
CCSC(SCC)c1cc2c(cc1Br)OCO2 | 59.3 µM | > 100 µM | 64.7 µM | > 100 µM | > 100 µM | 35.5 µM | > 100 µM | – | – | – | – | – | – | – | – | – | – | – | – | –
COc1cc(OC)c2ssc3c(OC)cc(OC)c4ssc1c2-c43 | > 100 µM | > 100 µM | > 100 µM | > 100 µM | > 100 µM | > 100 µM | > 100 µM | > 100 µM | – | – | – | – | – | – | – | – | – | – | – | –
CN(C)c1ncnc2c1Cc1ccccc1C(=O)N2C | > 100 µM | > 100 µM | > 100 µM | > 100 µM | > 100 µM | > 100 µM | > 100 µM | > 100 µM | – | – | – | – | – | – | – | – | – | – | – | –
C[C@H](N)C(=O)N[C@@H]1[C@H]2C(=C(O)C[C@@H](O)[C@@H]2O)C(=O)O[C@]1(C)C(Cl)Cl | 0.212 µM and 0.37 µM | 1.85 µM and 1.29 µM | 2.73 µM and 3.23 µM | 1.22 µM and 2.62 µM | 7.44 µM and 3.44 µM | 2.37 µM and 0.88 µM | 2.75 µM and 1.65 µM | 1.16 µM and 1.94 µM | 0.13 µM | 0.372 µM | – | 0.297 µM | – | – | – | 0.326 µM | – | 0.096 µM | – | 1.52 µM
CCOC(=O)Cc1nc2ccccc2s1 | > 100 µM | 52 µM | 69.1 µM | 40.6 µM | 57 µM | 36.6 µM | 28.2 µM | 33.2 µM | – | – | – | – | – | – | – | – | – | – | – | –
O=C1Nc2cc(Cl)ccc2N=CC1NC(=O)C(c1ccccc1)c1ccccc1Cl (stereo unspecified) | > 100 µM | > 100 µM | > 100 µM | > 100 µM | > 100 µM | > 100 µM | > 100 µM | > 100 µM | – | – | – | – | – | – | – | – | – | – | – | –
